According to US11746087B1, “C4-carboxylic acid-substituted tryptamine derivatives and methods of using” (priority 2022, dated 2023):

Tests used:
[1] = target: T1, 5-HT1A receptor (Homo sapiens, UniProt P08908); experiment: cAMP-Glo assay in +5-HT1A vs −5-HT1A CHO-K1 cells; format: cell-based; details: for cAMP levels in +5-HT1A cells with increasing ligand: cells stimulated with 4 mM forskolin, compared with −5-HT1A cells; for 5-HT1A receptor modulation, +5-HT1A vs −5-HT1A cultures: cAMP assay with 4 mM forskolin
T1 construct: host or cells: CHO-K1 (co-expressing Ga15)
T1 sequence (P08908 1-422): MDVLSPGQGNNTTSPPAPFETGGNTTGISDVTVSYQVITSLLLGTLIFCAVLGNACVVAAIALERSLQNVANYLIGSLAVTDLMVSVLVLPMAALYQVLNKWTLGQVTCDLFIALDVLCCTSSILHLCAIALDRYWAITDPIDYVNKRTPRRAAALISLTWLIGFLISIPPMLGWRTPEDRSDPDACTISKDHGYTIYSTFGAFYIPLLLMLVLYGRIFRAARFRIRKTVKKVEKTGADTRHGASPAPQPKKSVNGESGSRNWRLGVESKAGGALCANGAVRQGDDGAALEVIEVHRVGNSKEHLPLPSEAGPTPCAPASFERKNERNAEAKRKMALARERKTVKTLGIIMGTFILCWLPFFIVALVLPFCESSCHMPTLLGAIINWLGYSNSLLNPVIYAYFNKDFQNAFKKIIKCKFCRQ

[2] = target: 5-HT2A receptor (Homo sapiens, UniProt P28223); experiment: [3H]ketanserin competition binding assay (SPA); details: 1 nM [3H]ketanserin; control ligands, FIG. 3E, 3F
Sequence of 5-HT2A receptor (Homo sapiens, UniProt P28223) (P28223 whole entry): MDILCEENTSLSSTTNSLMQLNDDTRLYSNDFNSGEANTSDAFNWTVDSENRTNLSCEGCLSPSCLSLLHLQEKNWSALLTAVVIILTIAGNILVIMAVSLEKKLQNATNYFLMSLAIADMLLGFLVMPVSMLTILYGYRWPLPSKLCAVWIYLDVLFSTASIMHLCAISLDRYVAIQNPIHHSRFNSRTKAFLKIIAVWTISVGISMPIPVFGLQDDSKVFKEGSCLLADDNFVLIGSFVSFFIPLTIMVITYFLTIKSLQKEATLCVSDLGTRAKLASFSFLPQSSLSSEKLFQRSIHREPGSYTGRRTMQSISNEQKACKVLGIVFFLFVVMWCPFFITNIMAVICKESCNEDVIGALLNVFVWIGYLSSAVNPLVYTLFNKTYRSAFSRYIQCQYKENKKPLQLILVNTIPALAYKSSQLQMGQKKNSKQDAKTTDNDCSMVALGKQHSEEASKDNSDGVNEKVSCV

[3] = Metabolic stability / psilocin release in human liver S9; format: in vitro ADME; details: 400 μg/ml HLS9, NADPH, 37° C.
Text: (§1) A fundamental evaluation in drug development is the assessment of absorption, distribution, metabolism, excretion, and pharmacokinetics (ADME/PK) (Eddershaw et al., 2000, Drug Discovery Today 5(9): 409-414). […] Drug stability upon exposure to human liver microsomes and liver S9 cellular fractions is a common in vitro assay to approximate in vivo, liver-based drug metabolism (Richardson et al., 2016 Drug Metabolism Letters 10:83-90). First-pass metabolism is also often approximated in vitro using intestinal microsome and cellular S9 fractions (Hatley et al., 2017, Biopharmaceuticals & Drug Disposition, 38(2):155-160). […] Supernatants were analyzed for the presence of candidate prodrugs (parent molecule) and psilocin (the predicted metabolite) using Orbitrap LC-MS (Thermo Scientific) using previously described methods (Menéndez-Perdomo et al., 2021, J Mass Spectrom, 56: e4683). […] Assay concentrations (μM) of both parent ‘prodrug’ molecule and psilocin metabolite, as quantified through LC-MS using routine standard curve procedures, were plotted as functions of assay time (minutes). The metabolism rate (T1/2) was determined from the metabolism curve plot using the one phase decay feature of GraphPad PRISM software (Version 9.2.0). The quantity of parent prodrug at time zero was set as 100%. […]

[4] = Stability / psilocin release in enzyme-free control buffer; format: in vitro ADME; details: enzyme-free control buffer pH 7.4, 37° C., 2 hours
Text: as §1

[5] = Metabolic stability / psilocin release in human liver microsomes; format: in vitro ADME; details: 400 μg/ml HLM, NADPH, 37° C.
Text: as §1

[6] = Mouse PK study (IV and PO), plasma parent compound and psilocin by LC-MS/MS; format: in vivo; details: mouse; for Plasma concentration of psilocybin: psilocybin 1 mg/kg i.v.
Text: Briefly, the procedure was as follows. […] 19, 2022.

[7] = target: T2, 5-HT2A receptor (Mus musculus, UniProt P35363); experiment: Drug-induced Head Twitch Response (HTR); format: in vivo; details: C57BL/6 mice; 1 mg/kg i.p.; 15-to-30-minute window after administration
T2 construct: 8-week old C57BL/6-Elite male and female mice were obtained from Charles River; tissue Charles River; host or cells: living C57BL/6-Elite mice (neuronal receptor, in vivo)
T2 sequence (P35363 whole entry): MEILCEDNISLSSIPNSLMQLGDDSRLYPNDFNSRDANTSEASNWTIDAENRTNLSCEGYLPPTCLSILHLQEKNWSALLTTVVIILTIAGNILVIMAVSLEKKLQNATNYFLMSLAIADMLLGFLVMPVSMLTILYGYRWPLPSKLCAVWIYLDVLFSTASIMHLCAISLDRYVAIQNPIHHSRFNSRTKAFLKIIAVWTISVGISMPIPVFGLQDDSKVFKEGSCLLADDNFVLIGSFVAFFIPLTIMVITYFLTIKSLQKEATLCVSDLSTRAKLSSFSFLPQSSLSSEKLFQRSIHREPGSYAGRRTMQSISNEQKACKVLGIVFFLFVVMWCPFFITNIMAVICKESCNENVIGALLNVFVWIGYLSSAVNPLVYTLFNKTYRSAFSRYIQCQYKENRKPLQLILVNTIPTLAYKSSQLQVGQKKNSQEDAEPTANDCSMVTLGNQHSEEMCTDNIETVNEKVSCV

## NCCc1c[nH]c2ccc(O)cc12 [serotonin, reference compound]
[1]
  cAMP levels in +5-HT1A cells with increasing ligand: reduction in cAMP levels

## CN(C)CCc1c[nH]c2cccc(O)c12 [psilocin, reference compound]
[1]
  cAMP levels in +5-HT1A cells with increasing ligand: reduction in cAMP levels
[2]
  competition binding vs [3H]ketanserin at 5-HT2A receptor: binding

## CN(C)CCc1c[nH]c2cccc(OP(=O)(O)O)c12 [psilocybin, reference compound]
[3]
  stability / conversion to psilocin in liver fractions (HLS9): stable in liver fractions with no conversion to psilocin
[4]
  stability in assay buffer: stability of psilocybin was confirmed
[5]
  stability / conversion to psilocin in liver fractions (HLM): stable in liver fractions with no conversion to psilocin
[6]; 1 mg/kg i.v.
  detectability of parent compound in plasma, i.v. dosing: only detectable in i.v. administered animals
[6]; oral, any dose (1, 3, 10 mg/kg)
  detectability of parent compound in plasma, oral dosing: not detectable
[6]; 2 h
  Plasma concentration of psilocybin: No Peak
[6]; 4 h
  Plasma concentration of psilocybin: No Peak
[6]; 6 h
  Plasma concentration of psilocybin: No Peak
[6]; psilocybin 1.56 mg/kg oral (nominal 1 mg/kg), 24 h
  Plasma concentration of psilocin: BLQ

## COC(=O)c1cccc(C(=O)Oc2cccc3[nH]cc(CCN(C)C)c23)c1 [C(XLIII)]
[1]
  5-HT1A receptor modulation, +5-HT1A vs −5-HT1A cultures: receptor modulation at higher ligand concentrations

## N[C@@H](Cc1c[nH]c2ccccc12)C(=O)O [tryptophan, reference compound]
[1]
  cAMP levels in +5-HT1A cells with increasing ligand: no reduction in cellular cAMP levels
[2]
  competition binding vs [3H]ketanserin at 5-HT2A receptor: no binding

## COCCOCCOCC(=O)Oc1cccc2[nH]cc(CCN(C)C)c12 [C(III)]
[7]
  Head Twitch Response (HTR) incidence relative to vehicle: Elevated incidences of HTR
[1]
  5-HT1A receptor modulation, +5-HT1A vs −5-HT1A cultures: significant receptor modulation

## CN(C)CCc1c[nH]c2cccc(OC(=O)c3cccc(C(=O)Oc4cccc5[nH]cc(CCN(C)C)c45)c3)c12 [C(VII)]
[7]
  Head Twitch Response (HTR) incidence relative to vehicle: Elevated incidences of HTR
[1]
  5-HT1A receptor modulation, +5-HT1A vs −5-HT1A cultures: no significant receptor modulation
